System: moderate-to-severe chronic spontaneous urticaria (CSU)
Assay: Phase 2 CSU study: urticaria activity score over 7 days (UAS7)
Format: in vivo, human
Design: key to UAS7 Median / UAS7 Change from baseline Median / UAS7 change from baseline, Q1 / UAS7 change from baseline, Q3 / UAS7 change from baseline, Max / UAS7 Change from baseline LS Mean (SE): UAS7 points; daily UAS score ranges 0–6 points/day, over 7 days
Source text: The study comprises a 12 week, randomized, double-blind, placebo-controlled, multi-center, dose-ranging efficacy and safety phase, followed by a 40 week open label extension (OLE) phase (see FIG. 1). The study consists of three phases and an optional OLE phase. […] Clinically, CSU is characterized by the spontaneous and recurrent appearance of pruritic hives. The proposed primary endpoints were the UAS7 at Week 12 in EU and EU reference countries and the ISS7 in the US. Regardless of where a participant was from, all assessments were the same. The UAS7 score is a composite score containing both the HSS7 and the ISS7. This allowed a global assessment of the two key components of urticaria: hives and itch. […] The UAS is a validated PRO measure. […] The daily UAS scores range from 0 to 6 point/day. […] Patients were to complete the UAS using the e-diary. […] The following secondary endpoints were to be analyzed using the same approach as for the primary endpoint: • Change from baseline in UAS7 at Week 4 • Change from baseline in UAS7 at Week 12 (for US and US reference countries) • Change from baseline in ISS7 at Week 12 (except US and US reference countries) • Change from baseline in HSS7 at Week 12 The following responder secondary endpoints were to be analyzed using the Cochran-Mantel-Haenszel test adjusted by region: • Proportion of participants with UAS7<6 at Week 12 • Proportion of participants with UAS7=0 at Week 12 Participants who received selected prohibited medications and/or rescue medications were to be considered as non-responders for time points after the medication usage. For other participants, all available data including those collected during the off-treatment period were to be used to determine the responder/non-responder status. Missing data were to be considered as non-responders.

[1] = ITT Population, 400 mg TID, Week 1
[2] = ITT Population, 400 mg TID, Week 12
[3] = ITT population, 400 mg BID, Week 1
[4] = ITT population, 400 mg BID, Week 3
[5] = ITT population, 400 mg BID, Week 4
[6] = ITT population, 400 mg BID, Week 5
[7] = ITT population, 400 mg BID, Week 6
[8] = ITT population, 400 mg BID, Week 7
[9] = ITT population, 400 mg BID, Week 8
[10] = ITT population, 400 mg BID, Week 9
[11] = ITT population, 400 mg BID, Week 10
[12] = ITT population, 400 mg BID, Week 11
[13] = ITT population, 400 mg BID, Week 12
[14] = ITT population, 400 mg QPM, Week 1
[15] = ITT population, 400 mg QPM, Week 2
[16] = ITT population, 400 mg QPM, Week 4
[17] = ITT population, 400 mg QPM, Week 6
[18] = ITT population, 400 mg QPM, Week 7
[19] = ITT population, 400 mg QPM, Week 8
[20] = ITT population, 400 mg QPM, Week 9
[21] = ITT population, 400 mg QPM, Week 10
[22] = ITT population, 400 mg QPM, Week 11
[23] = ITT population, 400 mg QPM, Week 12
[24] = ITT population, 400 mg TID, Week 2
[25] = ITT population, 400 mg TID, Week 3
[26] = ITT population, 400 mg TID, Week 4
[27] = ITT population, 400 mg TID, Week 5

## CC(C)(C=C(C#N)C(=O)N1CCC[C@@H](n2nc(-c3ccc(Oc4ccccc4)cc3F)c3c(N)ncnc32)C1)N1CCN(C2COC2)CC1 [rilzabrutinib, (R)-2-[3-[4-amino-3-(2-fluoro-4-phenoxy-phenyl)pyrazolo[3,4-d]pyrimidin-1-yl]piperidine-1-carbonyl]-4-methyl-4-[4-(oxetan-3-yl)piperazin-1-yl]pent-2-enenitrile]
ITT Population, 400 mg QPM, Week 5
  UAS7 Post-baseline Mean (SD): 20.58 (9.05)
[1]
  UAS7 % Change difference for rilzabrutinib vs. placebo LS Mean (95% CI): −29.94%
  UAS7 % Change from baseline LS Mean (SE): −40.18%
  UAS7 Change from baseline LS Mean (SE): −12.72
  UAS7 Post-baseline Mean (SD): 16.95 (10.13)
[2]
  UAS7 % Change difference for rilzabrutinib vs. placebo LS Mean (95% CI): −26.23%
  UAS7 % Change from baseline LS Mean (SE): −59.16%
  UAS7 Change difference for rilzabrutinib vs. placebo LS Mean (95% CI): −6.76
  UAS7 Change from baseline LS Mean (SE): −17.95
[3]
  UAS7 % Change difference for rilzabrutinib vs. placebo LS Mean (95% CI): −23.93%
  UAS7 % Change from baseline LS Mean (SE): −34.18%
  UAS7 Change difference for rilzabrutinib vs. placebo LS Mean (95% CI): −6.18
  UAS7 Change from baseline LS Mean (SE): −10.01
  UAS7 Post-baseline Mean (SD): 19.98 (11.35)
[4]
  UAS7 % Change difference for rilzabrutinib vs. placebo LS Mean (95% CI): −18.34%
  UAS7 % Change from baseline LS Mean (SE): −39.97%
  UAS7 Change difference for rilzabrutinib vs. placebo LS Mean (95% CI): −4.74
  UAS7 Change from baseline LS Mean (SE): −12.33
  UAS7 Post-baseline Mean (SD): 17.63 (12.02)
[5]
  UAS7 % Change difference for rilzabrutinib vs. placebo LS Mean (95% CI): −20.76%
  UAS7 % Change from baseline LS Mean (SE): −44.02%
  UAS7 Change difference for rilzabrutinib vs. placebo LS Mean (95% CI): −5.34
  UAS7 Change from baseline LS Mean (SE): −13.41
  UAS7 Post-baseline Mean (SD): 15.62 (12.20)
[6]
  UAS7 % Change difference for rilzabrutinib vs. placebo LS Mean (95% CI): −10.88%
  UAS7 % Change from baseline LS Mean (SE): −42.67%
  UAS7 Change difference for rilzabrutinib vs. placebo LS Mean (95% CI): −2.61
  UAS7 Change from baseline LS Mean (SE): −12.81
  UAS7 Post-baseline Mean (SD): 16.44 (13.70)
[7]
  UAS7 % Change difference for rilzabrutinib vs. placebo LS Mean (95% CI): −14.76%
  UAS7 % Change from baseline LS Mean (SE): −41.66%
  UAS7 Change difference for rilzabrutinib vs. placebo LS Mean (95% CI): −3.64
  UAS7 Change from baseline LS Mean (SE): −12.78
  UAS7 Post-baseline Mean (SD): 16.51 (12.98)
[8]
  UAS7 % Change difference for rilzabrutinib vs. placebo LS Mean (95% CI): −20.46%
  UAS7 % Change from baseline LS Mean (SE): −47.80%
  UAS7 Change difference for rilzabrutinib vs. placebo LS Mean (95% CI): −5.50
  UAS7 Change from baseline LS Mean (SE): −14.56
  UAS7 Post-baseline Mean (SD): 15.04 (12.35)
[9]
  UAS7 % Change difference for rilzabrutinib vs. placebo LS Mean (95% CI): −21.40%
  UAS7 % Change from baseline LS Mean (SE): −53.24%
  UAS7 Change difference for rilzabrutinib vs. placebo LS Mean (95% CI): −5.61
  UAS7 Change from baseline LS Mean (SE): −15.96
  UAS7 Post-baseline Mean (SD): 13.59 (13.23)
[10]
  UAS7 % Change difference for rilzabrutinib vs. placebo LS Mean (95% CI): −24.16%
  UAS7 % Change from baseline LS Mean (SE): −52.21%
  UAS7 Change difference for rilzabrutinib vs. placebo LS Mean (95% CI): −5.85
  UAS7 Change from baseline LS Mean (SE): −15.45
  UAS7 Post-baseline Mean (SD): 14.13 (14.43)
[11]
  UAS7 % Change difference for rilzabrutinib vs. placebo LS Mean (95% CI): −17.60%
  UAS7 % Change from baseline LS Mean (SE): −51.13%
  UAS7 Change difference for rilzabrutinib vs. placebo LS Mean (95% CI): −4.46
  UAS7 Change from baseline LS Mean (SE): −15.36
  UAS7 Post-baseline Mean (SD): 14.82 (14.24)
[12]
  UAS7 % Change difference for rilzabrutinib vs. placebo LS Mean (95% CI): −19.11%
  UAS7 % Change from baseline LS Mean (SE): −49.87%
  UAS7 Change difference for rilzabrutinib vs. placebo LS Mean (95% CI): −4.55
  UAS7 Change from baseline LS Mean (SE): −14.95
  UAS7 Post-baseline Mean (SD): 14.55 (13.86)
[13]
  UAS7 % Change difference for rilzabrutinib vs. placebo LS Mean (95% CI): −16.41%
  UAS7 % Change from baseline LS Mean (SE): −49.34%
  UAS7 Change difference for rilzabrutinib vs. placebo LS Mean (95% CI): −3.62
  UAS7 Change from baseline LS Mean (SE): −14.82
  UAS7 Post-baseline Mean (SD): 14.70 (14.29)
[14]
  UAS7 % Change difference for rilzabrutinib vs. placebo LS Mean (95% CI): −12.22%
  UAS7 % Change from baseline LS Mean (SE): −22.47%
  UAS7 Change difference for rilzabrutinib vs. placebo LS Mean (95% CI): −3.61
  UAS7 Change from baseline LS Mean (SE): −7.44
  UAS7 Post-baseline Mean (SD): 23.84 (8.66)
[15]
  UAS7 % Change difference for rilzabrutinib vs. placebo LS Mean (95% CI): −6.32%
  UAS7 % Change from baseline LS Mean (SE): −25.19%
  UAS7 Change difference for rilzabrutinib vs. placebo LS Mean (95% CI): −1.80
  UAS7 Change from baseline LS Mean (SE): −8.14
  UAS7 Post-baseline Mean (SD): 23.40 (8.85)
[16]
  UAS7 % Change difference for rilzabrutinib vs. placebo LS Mean (95% CI): −5.97%
  UAS7 % Change from baseline LS Mean (SE): −29.23%
  UAS7 Change difference for rilzabrutinib vs. placebo LS Mean (95% CI): −1.48
  UAS7 Change from baseline LS Mean (SE): −9.55
  UAS7 Post-baseline Mean (SD): 21.82 (8.73)
[17]
  UAS7 % Change difference for rilzabrutinib vs. placebo LS Mean (95% CI): −7.24%
  UAS7 % Change from baseline LS Mean (SE): −34.14%
  UAS7 Change difference for rilzabrutinib vs. placebo LS Mean (95% CI): −1.88
  UAS7 Change from baseline LS Mean (SE): −11.02
  UAS7 Post-baseline Mean (SD): 20.12 (10.28)
[18]
  UAS7 % Change difference for rilzabrutinib vs. placebo LS Mean (95% CI): −7.16%
  UAS7 % Change from baseline LS Mean (SE): −34.50%
  UAS7 Change difference for rilzabrutinib vs. placebo LS Mean (95% CI): −1.89
  UAS7 Change from baseline LS Mean (SE): −10.95
  UAS7 Post-baseline Mean (SD): 20.98 (9.91)
[19]
  UAS7 % Change difference for rilzabrutinib vs. placebo LS Mean (95% CI): −3.38%
  UAS7 % Change from baseline LS Mean (SE): −35.22%
  UAS7 Change difference for rilzabrutinib vs. placebo LS Mean (95% CI): −0.53
  UAS7 Change from baseline LS Mean (SE): −10.88
  UAS7 Post-baseline Mean (SD): 21.01 (10.40)
[20]
  UAS7 % Change difference for rilzabrutinib vs. placebo LS Mean (95% CI): −8.48%
  UAS7 % Change from baseline LS Mean (SE): −36.53%
  UAS7 Change difference for rilzabrutinib vs. placebo LS Mean (95% CI): −1.73
  UAS7 Change from baseline LS Mean (SE): −11.33
  UAS7 Post-baseline Mean (SD): 20.18 (10.10)
[21]
  UAS7 % Change difference for rilzabrutinib vs. placebo LS Mean (95% CI): −3.82%
  UAS7 % Change from baseline LS Mean (SE): −37.35%
  UAS7 Change difference for rilzabrutinib vs. placebo LS Mean (95% CI): −0.76
  UAS7 Change from baseline LS Mean (SE): −11.66
  UAS7 Post-baseline Mean (SD): 20.15 (10.55)
[22]
  UAS7 % Change difference for rilzabrutinib vs. placebo LS Mean (95% CI): −5.62%
  UAS7 % Change from baseline LS Mean (SE): −36.39%
  UAS7 Change difference for rilzabrutinib vs. placebo LS Mean (95% CI): −0.52
  UAS7 Change from baseline LS Mean (SE): −10.92
  UAS7 Post-baseline Mean (SD): 21.08 (11.00)
[23]
  UAS7 % Change difference for rilzabrutinib vs. placebo LS Mean (95% CI): −2.09%
  UAS7 % Change from baseline LS Mean (SE): −35.03%
  UAS7 Change difference for rilzabrutinib vs. placebo LS Mean (95% CI): 0.97
  UAS7 Change from baseline LS Mean (SE): −10.22
  UAS7 Post-baseline Mean (SD): 21.80 (10.94)
[24]
  UAS7 % Change difference for rilzabrutinib vs. placebo LS Mean (95% CI): −29.83%
  UAS7 % Change from baseline LS Mean (SE): −48.69%
  UAS7 Change difference for rilzabrutinib vs. placebo LS Mean (95% CI): −8.72
  UAS7 Change from baseline LS Mean (SE): −15.06
  UAS7 Post-baseline Mean (SD): 14.58 (10.74)
[25]
  UAS7 % Change difference for rilzabrutinib vs. placebo LS Mean (95% CI): −28.32%
  UAS7 % Change from baseline LS Mean (SE): −49.95%
  UAS7 Change difference for rilzabrutinib vs. placebo LS Mean (95% CI): −7.56
  UAS7 Change from baseline LS Mean (SE): −15.15
  UAS7 Post-baseline Mean (SD): 14.42 (9.77)
[26]
  UAS7 % Change difference for rilzabrutinib vs. placebo LS Mean (95% CI): −25.68%
  UAS7 % Change from baseline LS Mean (SE): −48.94%
  UAS7 Change difference for rilzabrutinib vs. placebo LS Mean (95% CI): −6.71
  UAS7 Change from baseline LS Mean (SE): −14.78
  UAS7 Post-baseline Mean (SD): 13.93 (9.77)
[27]
  UAS7 % Change difference for rilzabrutinib vs. placebo LS Mean (95% CI): −22.21%
  UAS7 % Change from baseline LS Mean (SE): −54.01%
  UAS7 Change difference for rilzabrutinib vs. placebo LS Mean (95% CI): −6.47
